Results as given in the OligoGym collection.
Oligonucleotides are given in HELM: sugar(base)linkage, 5' to 3'; d 2'-deoxyribose, r ribose, m 2'-O-methylribose, p phosphate. ss, as = sense and antisense strand

Target: CDC34
Test: reporter assay of Huesken 2005
Settings: siRNA
Note: test concentration or dose not given here.

Substance	normalised inhibition (eCFP-eYFP dual reporter) [%]
RNA1{r(C)p.r(C)p.r(C)p.r(A)p.r(A)p.r(C)p.r(A)p.r(C)p.r(C)p.r(U)p.r(U)p.r(C)p.r(U)p.r(C)p.r(G)p.r(C)p.r(C)p.r(C)p.r(G)p.d(T)p.d(T)}|RNA2{r(C)p.r(G)p.r(G)p.r(G)p.r(C)p.r(G)p.r(A)p.r(G)p.r(A)p.r(A)p.r(G)p.r(G)p.r(U)p.r(G)p.r(U)p.r(U)p.r(G)p.r(G)p.r(G)p.d(C)p.d(T)}$$$RNA1{StrandType:ss}|RNA2{StrandType:as}$	45.9
RNA1{r(C)p.r(C)p.r(C)p.r(C)p.r(A)p.r(U)p.r(C)p.r(G)p.r(A)p.r(C)p.r(U)p.r(A)p.r(C)p.r(C)p.r(C)p.r(A)p.r(U)p.r(A)p.r(C)p.d(T)p.d(T)}|RNA2{r(G)p.r(U)p.r(A)p.r(U)p.r(G)p.r(G)p.r(G)p.r(U)p.r(A)p.r(G)p.r(U)p.r(C)p.r(G)p.r(A)p.r(U)p.r(G)p.r(G)p.r(G)p.r(G)p.d(A)p.d(A)}$$$RNA1{StrandType:ss}|RNA2{StrandType:as}$	44.9
RNA1{r(C)p.r(C)p.r(G)p.r(A)p.r(G)p.r(U)p.r(A)p.r(C)p.r(U)p.r(G)p.r(C)p.r(G)p.r(U)p.r(G)p.r(A)p.r(A)p.r(G)p.r(A)p.r(C)p.d(T)p.d(T)}|RNA2{r(G)p.r(U)p.r(C)p.r(U)p.r(U)p.r(C)p.r(A)p.r(C)p.r(G)p.r(C)p.r(A)p.r(G)p.r(U)p.r(A)p.r(C)p.r(U)p.r(C)p.r(G)p.r(G)p.d(C)p.d(C)}$$$RNA1{StrandType:ss}|RNA2{StrandType:as}$	59
RNA1{r(C)p.r(C)p.r(U)p.r(C)p.r(C)p.r(U)p.r(G)p.r(A)p.r(A)p.r(C)p.r(G)p.r(A)p.r(G)p.r(C)p.r(C)p.r(C)p.r(A)p.r(A)p.r(C)p.d(T)p.d(T)}|RNA2{r(G)p.r(U)p.r(U)p.r(G)p.r(G)p.r(G)p.r(C)p.r(U)p.r(C)p.r(G)p.r(U)p.r(U)p.r(C)p.r(A)p.r(G)p.r(G)p.r(A)p.r(G)p.r(G)p.d(G)p.d(A)}$$$RNA1{StrandType:ss}|RNA2{StrandType:as}$	68.2
RNA1{r(C)p.r(C)p.r(U)p.r(C)p.r(U)p.r(U)p.r(C)p.r(U)p.r(A)p.r(C)p.r(G)p.r(A)p.r(C)p.r(G)p.r(A)p.r(C)p.r(U)p.r(A)p.r(C)p.d(T)p.d(T)}|RNA2{r(G)p.r(U)p.r(A)p.r(G)p.r(U)p.r(C)p.r(G)p.r(U)p.r(C)p.r(G)p.r(U)p.r(A)p.r(G)p.r(A)p.r(A)p.r(G)p.r(A)p.r(G)p.r(G)p.d(T)p.d(C)}$$$RNA1{StrandType:ss}|RNA2{StrandType:as}$	82.7
RNA1{r(C)p.r(C)p.r(U)p.r(G)p.r(A)p.r(G)p.r(U)p.r(G)p.r(U)p.r(G)p.r(A)p.r(U)p.r(C)p.r(U)p.r(C)p.r(C)p.r(C)p.r(U)p.r(C)p.d(T)p.d(T)}|RNA2{r(G)p.r(A)p.r(G)p.r(G)p.r(G)p.r(A)p.r(G)p.r(A)p.r(U)p.r(C)p.r(A)p.r(C)p.r(A)p.r(C)p.r(U)p.r(C)p.r(A)p.r(G)p.r(G)p.d(A)p.d(G)}$$$RNA1{StrandType:ss}|RNA2{StrandType:as}$	58.4
RNA1{r(C)p.r(G)p.r(A)p.r(C)p.r(G)p.r(A)p.r(C)p.r(U)p.r(A)p.r(C)p.r(U)p.r(A)p.r(C)p.r(G)p.r(G)p.r(G)p.r(A)p.r(C)p.r(G)p.d(T)p.d(T)}|RNA2{r(C)p.r(G)p.r(U)p.r(C)p.r(C)p.r(C)p.r(G)p.r(U)p.r(A)p.r(G)p.r(U)p.r(A)p.r(G)p.r(U)p.r(C)p.r(G)p.r(U)p.r(C)p.r(G)p.d(T)p.d(A)}$$$RNA1{StrandType:ss}|RNA2{StrandType:as}$	62.7
RNA1{r(C)p.r(G)p.r(A)p.r(G)p.r(G)p.r(G)p.r(C)p.r(G)p.r(A)p.r(U)p.r(C)p.r(U)p.r(A)p.r(U)p.r(A)p.r(C)p.r(A)p.r(A)p.r(C)p.d(T)p.d(T)}|RNA2{r(G)p.r(U)p.r(U)p.r(G)p.r(U)p.r(A)p.r(U)p.r(A)p.r(G)p.r(A)p.r(U)p.r(C)p.r(G)p.r(C)p.r(C)p.r(C)p.r(U)p.r(C)p.r(G)p.d(T)p.d(C)}$$$RNA1{StrandType:ss}|RNA2{StrandType:as}$	72.7
RNA1{r(C)p.r(G)p.r(C)p.r(C)p.r(U)p.r(C)p.r(C)p.r(G)p.r(U)p.r(G)p.r(A)p.r(U)p.r(G)p.r(U)p.r(A)p.r(C)p.r(A)p.r(G)p.r(G)p.d(T)p.d(T)}|RNA2{r(C)p.r(C)p.r(U)p.r(G)p.r(U)p.r(A)p.r(C)p.r(A)p.r(U)p.r(C)p.r(A)p.r(C)p.r(G)p.r(G)p.r(A)p.r(G)p.r(G)p.r(C)p.r(G)p.d(T)p.d(C)}$$$RNA1{StrandType:ss}|RNA2{StrandType:as}$	36.4
RNA1{r(C)p.r(G)p.r(C)p.r(G)p.r(C)p.r(C)p.r(U)p.r(C)p.r(A)p.r(A)p.r(G)p.r(U)p.r(U)p.r(C)p.r(C)p.r(C)p.r(C)p.r(A)p.r(U)p.d(T)p.d(T)}|RNA2{r(A)p.r(U)p.r(G)p.r(G)p.r(G)p.r(G)p.r(A)p.r(A)p.r(C)p.r(U)p.r(U)p.r(G)p.r(A)p.r(G)p.r(G)p.r(C)p.r(G)p.r(C)p.r(G)p.d(C)p.d(C)}$$$RNA1{StrandType:ss}|RNA2{StrandType:as}$	51.1
RNA1{r(C)p.r(G)p.r(C)p.r(G)p.r(U)p.r(G)p.r(A)p.r(C)p.r(A)p.r(C)p.r(U)p.r(G)p.r(G)p.r(U)p.r(G)p.r(G)p.r(A)p.r(C)p.r(G)p.d(T)p.d(T)}|RNA2{r(C)p.r(G)p.r(U)p.r(C)p.r(C)p.r(A)p.r(C)p.r(C)p.r(A)p.r(G)p.r(U)p.r(G)p.r(U)p.r(C)p.r(A)p.r(C)p.r(G)p.r(C)p.r(G)p.d(G)p.d(A)}$$$RNA1{StrandType:ss}|RNA2{StrandType:as}$	67.3
RNA1{r(C)p.r(G)p.r(U)p.r(C)p.r(A)p.r(G)p.r(G)p.r(A)p.r(C)p.r(C)p.r(A)p.r(U)p.r(U)p.r(C)p.r(U)p.r(C)p.r(C)p.r(U)p.r(G)p.d(T)p.d(T)}|RNA2{r(C)p.r(A)p.r(G)p.r(G)p.r(A)p.r(G)p.r(A)p.r(A)p.r(U)p.r(G)p.r(G)p.r(U)p.r(C)p.r(C)p.r(U)p.r(G)p.r(A)p.r(C)p.r(G)p.d(T)p.d(T)}$$$RNA1{StrandType:ss}|RNA2{StrandType:as}$	72.1
RNA1{r(C)p.r(G)p.r(U)p.r(G)p.r(G)p.r(A)p.r(C)p.r(G)p.r(C)p.r(C)p.r(U)p.r(C)p.r(C)p.r(G)p.r(U)p.r(G)p.r(A)p.r(U)p.r(G)p.d(T)p.d(T)}|RNA2{r(C)p.r(A)p.r(U)p.r(C)p.r(A)p.r(C)p.r(G)p.r(G)p.r(A)p.r(G)p.r(G)p.r(C)p.r(G)p.r(U)p.r(C)p.r(C)p.r(A)p.r(C)p.r(G)p.d(T)p.d(T)}$$$RNA1{StrandType:ss}|RNA2{StrandType:as}$	79.4
RNA1{r(C)p.r(U)p.r(A)p.r(C)p.r(G)p.r(A)p.r(C)p.r(G)p.r(A)p.r(C)p.r(U)p.r(A)p.r(C)p.r(U)p.r(A)p.r(C)p.r(G)p.r(G)p.r(G)p.d(T)p.d(T)}|RNA2{r(C)p.r(C)p.r(C)p.r(G)p.r(U)p.r(A)p.r(G)p.r(U)p.r(A)p.r(G)p.r(U)p.r(C)p.r(G)p.r(U)p.r(C)p.r(G)p.r(U)p.r(A)p.r(G)p.d(A)p.d(A)}$$$RNA1{StrandType:ss}|RNA2{StrandType:as}$	69
RNA1{r(C)p.r(U)p.r(A)p.r(C)p.r(G)p.r(A)p.r(G)p.r(G)p.r(G)p.r(C)p.r(G)p.r(G)p.r(C)p.r(U)p.r(A)p.r(C)p.r(U)p.r(U)p.r(C)p.d(T)p.d(T)}|RNA2{r(G)p.r(A)p.r(A)p.r(G)p.r(U)p.r(A)p.r(G)p.r(C)p.r(C)p.r(G)p.r(C)p.r(C)p.r(C)p.r(U)p.r(C)p.r(G)p.r(U)p.r(A)p.r(G)p.d(T)p.d(A)}$$$RNA1{StrandType:ss}|RNA2{StrandType:as}$	59.8
RNA1{r(C)p.r(U)p.r(C)p.r(A)p.r(G)p.r(A)p.r(C)p.r(C)p.r(U)p.r(C)p.r(U)p.r(U)p.r(C)p.r(U)p.r(A)p.r(C)p.r(G)p.r(A)p.r(C)p.d(T)p.d(T)}|RNA2{r(G)p.r(U)p.r(C)p.r(G)p.r(U)p.r(A)p.r(G)p.r(A)p.r(A)p.r(G)p.r(A)p.r(G)p.r(G)p.r(U)p.r(C)p.r(U)p.r(G)p.r(A)p.r(G)p.d(C)p.d(C)}$$$RNA1{StrandType:ss}|RNA2{StrandType:as}$	37.2
RNA1{r(C)p.r(U)p.r(C)p.r(C)p.r(U)p.r(G)p.r(A)p.r(G)p.r(U)p.r(G)p.r(U)p.r(G)p.r(A)p.r(U)p.r(C)p.r(U)p.r(C)p.r(C)p.r(C)p.d(T)p.d(T)}|RNA2{r(G)p.r(G)p.r(G)p.r(A)p.r(G)p.r(A)p.r(U)p.r(C)p.r(A)p.r(C)p.r(A)p.r(C)p.r(U)p.r(C)p.r(A)p.r(G)p.r(G)p.r(A)p.r(G)p.d(A)p.d(A)}$$$RNA1{StrandType:ss}|RNA2{StrandType:as}$	42.3
RNA1{r(C)p.r(U)p.r(G)p.r(A)p.r(G)p.r(U)p.r(G)p.r(U)p.r(G)p.r(A)p.r(U)p.r(C)p.r(U)p.r(C)p.r(C)p.r(C)p.r(U)p.r(C)p.r(C)p.d(T)p.d(T)}|RNA2{r(G)p.r(G)p.r(A)p.r(G)p.r(G)p.r(G)p.r(A)p.r(G)p.r(A)p.r(U)p.r(C)p.r(A)p.r(C)p.r(A)p.r(C)p.r(U)p.r(C)p.r(A)p.r(G)p.d(G)p.d(A)}$$$RNA1{StrandType:ss}|RNA2{StrandType:as}$	23.2
RNA1{r(G)p.r(A)p.r(A)p.r(G)p.r(G)p.r(A)p.r(U)p.r(C)p.r(G)p.r(G)p.r(G)p.r(A)p.r(G)p.r(U)p.r(A)p.r(C)p.r(A)p.r(C)p.r(A)p.d(T)p.d(T)}|RNA2{r(U)p.r(G)p.r(U)p.r(G)p.r(U)p.r(A)p.r(C)p.r(U)p.r(C)p.r(C)p.r(C)p.r(G)p.r(A)p.r(U)p.r(C)p.r(C)p.r(U)p.r(U)p.r(C)p.d(C)p.d(C)}$$$RNA1{StrandType:ss}|RNA2{StrandType:as}$	74.3
RNA1{r(G)p.r(A)p.r(C)p.r(C)p.r(A)p.r(U)p.r(U)p.r(C)p.r(U)p.r(C)p.r(C)p.r(U)p.r(G)p.r(A)p.r(G)p.r(U)p.r(G)p.r(U)p.r(G)p.d(T)p.d(T)}|RNA2{r(C)p.r(A)p.r(C)p.r(A)p.r(C)p.r(U)p.r(C)p.r(A)p.r(G)p.r(G)p.r(A)p.r(G)p.r(A)p.r(A)p.r(U)p.r(G)p.r(G)p.r(U)p.r(C)p.d(C)p.d(T)}$$$RNA1{StrandType:ss}|RNA2{StrandType:as}$	44.9
